# In patent publication US20040229791A1, “Compositions and methods of modulating TGF-beta activity by fatty acids” (priority 2002, published 2004):
# Key:
# [1] = molecular target: T1, 125I-TGF-β isoform-α2M* complexes (Homo sapiens, UniProt P01023); assay: Complex formation of 125I-TGF-β isoforms and α2M* by DSS cross-linking and 7.5% SDS-PAGE; format: binding; details: DSS cross-linking, effective concentrations comparable to non-denaturing PAGE
# T1 construct: was purified from pooled citrate-treate human plasma; from tissue; host or cells: pooled citrate-treated human plasma
# T1 sequence (P01023 24-1474): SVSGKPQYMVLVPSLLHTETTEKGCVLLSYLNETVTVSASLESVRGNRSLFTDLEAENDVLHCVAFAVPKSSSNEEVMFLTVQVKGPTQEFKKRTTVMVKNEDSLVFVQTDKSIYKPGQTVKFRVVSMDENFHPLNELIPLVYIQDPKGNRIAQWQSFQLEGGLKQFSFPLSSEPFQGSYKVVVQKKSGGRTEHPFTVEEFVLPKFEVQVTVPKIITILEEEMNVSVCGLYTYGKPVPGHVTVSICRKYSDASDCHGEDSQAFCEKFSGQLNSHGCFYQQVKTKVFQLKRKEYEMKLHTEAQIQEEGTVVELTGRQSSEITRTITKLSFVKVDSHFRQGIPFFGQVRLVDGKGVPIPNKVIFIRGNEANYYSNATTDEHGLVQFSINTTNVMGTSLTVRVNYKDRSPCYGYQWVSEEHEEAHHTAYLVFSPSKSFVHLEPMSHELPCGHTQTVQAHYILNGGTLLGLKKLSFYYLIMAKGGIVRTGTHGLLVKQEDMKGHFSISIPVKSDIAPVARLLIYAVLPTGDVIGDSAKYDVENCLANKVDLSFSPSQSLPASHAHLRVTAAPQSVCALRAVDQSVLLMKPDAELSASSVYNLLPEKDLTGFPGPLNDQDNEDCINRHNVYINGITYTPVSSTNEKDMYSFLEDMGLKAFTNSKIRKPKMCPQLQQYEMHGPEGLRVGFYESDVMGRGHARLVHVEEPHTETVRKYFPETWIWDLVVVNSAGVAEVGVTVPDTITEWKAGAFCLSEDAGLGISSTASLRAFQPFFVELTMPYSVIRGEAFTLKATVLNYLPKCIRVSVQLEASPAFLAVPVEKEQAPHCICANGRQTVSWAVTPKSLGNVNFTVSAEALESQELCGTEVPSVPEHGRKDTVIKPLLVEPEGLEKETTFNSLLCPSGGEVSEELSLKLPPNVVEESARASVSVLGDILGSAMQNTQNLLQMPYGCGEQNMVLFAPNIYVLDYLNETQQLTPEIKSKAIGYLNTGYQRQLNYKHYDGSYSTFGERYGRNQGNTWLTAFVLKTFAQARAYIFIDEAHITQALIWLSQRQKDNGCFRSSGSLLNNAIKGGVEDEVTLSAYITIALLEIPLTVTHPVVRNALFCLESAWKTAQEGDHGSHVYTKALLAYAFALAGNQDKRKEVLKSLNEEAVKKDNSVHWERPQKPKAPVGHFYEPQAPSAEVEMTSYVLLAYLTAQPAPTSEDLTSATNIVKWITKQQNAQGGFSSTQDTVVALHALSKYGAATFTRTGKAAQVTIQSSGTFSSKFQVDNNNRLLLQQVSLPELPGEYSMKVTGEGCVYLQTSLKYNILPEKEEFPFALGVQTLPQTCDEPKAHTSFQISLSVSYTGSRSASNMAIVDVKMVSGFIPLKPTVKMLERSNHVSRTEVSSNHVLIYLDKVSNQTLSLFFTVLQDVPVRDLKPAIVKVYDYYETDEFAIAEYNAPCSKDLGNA
# Description: TGF- ? isoforms bind to α2M* with different affinities: TGF ? β2>TGF ? β1 ( active sites of TGF ? β1 and TGF- ? 2 responsible for high-affinity binding to ? 2M* are disti from the low-affinity ? 2M* binding site in TGF- ? 3 (19). To determine if fatty acids differentially affect the binding of TGF- ? isoforms to ? 2M*, the effects of various concentrations of arachidonic acid and myristic acid on complex formation of ^125I-labeled TGF ? β isoforms and ? 2M were determined*. […] It inhibited 30% of the complex form . α2M* and TGF ? β2 and TGF ? β3 at 100 and >250 μM, respectively. Arachidon polyunsaturated fatty acid, was a stronger inhibitor of complex formation of ? 2M* and TGF-.β2/TGF ? β3. It inhibited 50% of the complex formation of ? 2M* and ^125I-TGF- ? 2 at 50 μM (FIG. 3A). The observation that myristic acid and arachidonic acid inhibited complex formation of ^125I-TGF- ? […] 2M* complexes in the reaction mixtures were then analyzed by 7.5% SDS-PAGE and autoradiography.
# Complex formation of ^125I-TGF-β and ? […] After 30 min at room temperature, the complex formation of ^125I-TGF- ? and. α2M* was determined by 5% non-denaturing polyacrylamide gel electrophoresis (PAGE) or by 7.5% SDS-PAGE following cross-linking by 0.6 mM DSS. After electrophoresis, the gel was stained with Coomassie blue and analyzed by autoradiography. […] 2M* was quantified using a PhosphoImager (Fuji).
# TGF-β1-α2M* complex = molecular target: T2, TGF-β1-α2M* complex (Homo sapiens, UniProt P01023); assay: Inhibition of 125I-TGF-β1 and α2M* complex formation (5% non-denaturing PAGE, autoradiography); format: binding; details: ~1 nM 125I-TGF-β1, 10 μg α2M* in 0.05 ml, 30 min room temperature, non-denaturing PAGE; read-out: IC50 for inhibiting complex formation between TGF-β1 and α2M*
# T2 construct: was purified from pooled citrate-treate human plasma; from tissue; host or cells: pooled citrate-treated human plasma
# T2 sequence (P01023 24-1474): T1 sequence (P01023 24-1474)
# Description: Saturated and unsaturated fatty acids are present in plasma and tissues (25,26). The effects of various concentrations of saturated fatty acids on the formation of complexes between ^125I-TGF ? β1 and ? 2M* were examined. ^125I-TGF- ? 1 (1 nM) was incubated μg/ml) in the presence of various concentrations of n-caprylic acid ([…]), lauric acid (12 carbon atoms), myristic acid (14 carbon atoms), palmitic acid (16 carbon atoms) and stearic acid (18 carbon atoms). After 30 min at room temperature, the reaction mixture was analyzed by 5% non-denaturing PAGE and autoradiography, a standard method form determining complex formation between TGF-β and α2M* (12). […] At 100 μM, it inhibited 20% of the complex formation between TGF ? β1 and α2M*. Esterification consistently abolished the inhibitory activities of the fatty acids.
# Complex formation of ^125I-TGF-β and ? 2M*—The reaction mixture contained 10 μg of . α2M*, ˜1 nM of ^125I-TGF- ? 1, ^125I-TGF ? β2 or ^125I-TGF ? acids (dissolved in 100% ethanol) in 0.05 ml of 50 mM HEPES-NaOH buffer, pH 7.4. The final concentration of ethanol in the reaction mixture was 0.5%. These fatty acids and fatty acid derivatives were soluble under the experimental conditions. After 30 min at room temperature, the complex formation of ^125I-TGF- ? and. α2M* was determined by 5% non-denaturing polyacrylamide gel electrophoresis (PAGE) or by 7.5% SDS-PAGE following cross-linking by 0.6 mM DSS. After electrophoresis, the gel was stained with Coomassie blue and analyzed by autoradiography. The ^125I-TGF- ? - ? 2M* complex which co-migrated with free ? 2M* was quantified using a PhosphoImager (Fuji).
structure (smiles),measurement,setting,value
CCCCC/C=C\C/C=C\C/C=C\C/C=C\CCCC(=O)O [arachidonic acid],blocking of cross-linked 125I-TGF-β isoform-α2M* complex formation,[1],blocked complex formation
same,IC50,TGF-β1-α2M* complex,7.8 ± 1.4 µM
